# Source: patent US8304448B2, “Method for the treatment of metabolic disorder containing benzazole derivatives as an active ingredient” (Korea Research Institute of Bioscience and Biotechnology, priority 2006, dated 2012)
# Tests used:
# [1] = tested on: DGAT; assay: Assay for inhibitory activity against DGAT ([14C]triacylglycerol formation, rat microsomal protein); format: biochemical; conditions: rat microsomal protein as enzyme source
# Excerpt: The derivatives of Chemical Formula 1 in accordance with the present invention are found to inhibit the enzymatic activity of DGAT at a dose-dependent manner (refer to Table 2 and FIG. 1) as measured in a test in which [^14C]triacylglycerol was quantitatively analyzed after enzymatic reaction between 1,2-diacylglycerol and [^14C]palmitoyl-CoA, with microsomal proteins from rats serving as an enzyme source (refer to Example 1).
# After enzymatic reaction between two substrates 1,2-diacylglycerol (Sigma, D0138) and [^14C]palmitoyl-CoA (Amersham, CFA583) with the microsomal protein of rat serving as an enzyme source in accordance with Coleman et al, Methods Enzymol., 98-103, 1992, the resulting product [^14C] triacylglycerol was measured for radioactivity. In detail, to a reaction buffer (175 mM Tris-HCl, pH 8.0, 20 μl bovine serum albumin (10 mg/ml), 100 mM MgCl2, 30 μM [^14C] palmitoyl-CoA (0.02 μCi, Amersham) and 200 μM 1,2-dioleoyl glycerol) was added 10 μl of a solution of the samples in dimethylsulfoxide (DMSO) and then 100˜200 μl of an isolated microsomal protein, followed by reaction at 25° C. for 10 min. The reaction was terminated with 1.5 ml of a mixture of 80:20:2 2-propanol:heptane:water (v:v:v). Thereafter, the [^14C] triacylglycerol thus formed was separated. In this regard, 1 ml of heptane and 0.5 ml of distilled water were added to the reaction mixture, which was then shaken. 1 ml of the supernatant thus formed was mixed with 2 ml of an alkaline ethanol solution (ethanol:0.5 N sodium hydroxide:water=50:10:40, v:v:v), followed by shaking. After being taken, 0.65 ml of the supernatant thus formed was measured for radioactivity using an LSC (liquid scintillation counter). The inhibitory activity against DGAT was calculated according to the following Mathematical Formula 1. The inhibitory effects of the benzazole derivatives on DGAT are summarized in Table 2, below while % DGAT inhibition is plotted against doses of compound 22 and 31 in FIG. 1.
# T: Cpm of a test group in which a sample was added to an enzymatic buffer,
# C: Cpm of a control in which no samples were added to an enzymatic buffer,
# B: Cpm of a control in which a sample was added in the absence of any enzyme source.
# [2] = tested on: ICR mice fed a high-fat diet; assay: In vivo assay for anti-obesity activity in mice fed a high-fat diet; set-up: species or system mouse; conditions: high-fat diet
# Description: Also, the derivatives of Chemical Formula 1 were tested for resistance to obesity by iterative oral administration at a dose of 10 mg/kg into ICR male mice (refer to Example 3). […] When they were administered, the levels of total triglycerides, total cholesterols, and low density lipoprotein (LDL)-cholesterol in the blood recovered to almost normal levels, with a significant increase observed in the level of high density lipoprotein (HDL)-cholesterol in the blood (refer to Tables 6 and 7 and FIGS. 3 and 4).
# In order to verify the anti-obesity activity of the benzaldehyde derivatives of Chemical Formula 1 in accordance with the present invention, Compounds 22 and 31 were administered repetitively into rodents as follows.
# The experimental animals were 6 week old ICR mice which were purchased from Japan SLC, Inc. via Central Lab. Animal Inc. Korea. They were acclimated to a new environment for one week before use, and fed with a foodstuff commercially available from Deyts, U.S.A. They were bred in an animal lab set at a temperature of 23±3° C. and RH 50±10% under light of 150˜300 Lux for a period of 12 hours (6 a.m.˜6 p.m.) with ventilation 10-20 times/hour. All of the 12 mice used were male, and were organized into two groups of 6. The test group was orally administered once a day at 4 p.m. with 10 mg/kg of the compound (Chemical Formula 1) in the form of a solution in biological saline for 35 days while the control was administered with biological saline only. Xenical, a commercially available lipase inhibitor, was administered orally at a dose of 10 mg/kg once a day as a positive control drug.
# The animals were measured for body weight every week and sacrificed on Day 35, after which blood from the heart was sampled. Abdominal fat, epididymal fat, retroperitoneal fat and the liver were excised and weighed. Blood samples were assayed for total triglyceride, total cholesterol, HDL-cholesterol and LDL-cholesterol using respective test kits, all commercially available from Asan Pharmaceutical Co. Ltd., Korea.
# For evidence of anti-obesity activity, compounds 22 and 31 were orally administered at regular intervals at a dose of 10 mg/kg into ICR male mice for a predetermined period of time with the concurrent provision of conditional diets thereto. Anatomized abdomens of the animals are given in the photographs of FIG. 2.
# [3] = Day 35, 10 mg/kg oral, Mean ± SD
# [4] = blood, Day 35, 10 mg/kg oral, Mean ± SD
Compound,DGAT (% inhibition in 25 μM) [1],also measured
"COC(=O)c1ccc2oc(COc3ccc(Cl)cc3Cl)nc2c1 [Cpd. 1, 2-(2,4-dichloro-phenoxymethyl)-benzoxazole-5-carboxylic acid methyl ester]",−2.64%,
"COC(=O)c1ccc2oc(COc3ccc(C45CC6CC(CC(C6)C4)C5)cc3)nc2c1 [Cpd. 2, 2-(4-adamantan-1-yl-phenoxymethyl)-benzoxazole-5-carboxylic acid methyl ester]",−25.72%,
"COC(=O)c1ccc2nc(COc3ccc(C45CC6CC(CC(C6)C4)C5)cc3)oc2c1 [Cpd. 3, 2-(4-adamantan-1-yl-phenoxymethyl)-benzoxazole-6-carboxylic acid methyl ester]",−5.34%,
"CCCCCCCCCCC[C@@H](C[C@@H]1OC(=O)[C@H]1CCCCCC)OC(=O)[C@H](CC(C)C)NC=O [Xenical, reference compound]",,"(Tissue Weight/Body Weight) × 100 Abdominal Fat + Epididymal Fat [2, 3]: 2.45 ± 1.03; (Tissue Weight/Body Weight) × 100 Liver [2, 3]: 4.31 ± 0.76; (Tissue Weight/Body Weight) × 100 Retroperitoneal Fat [2, 3]: 0.75 ± 0.50; (Tissue Weight/Body Weight) × 100 Total Fat [2, 3]: 3.20 ± 1.52; HDL-Cholesterol [2, 4]: 30.28 ± 1.52 mg/dL; LDL-Cholesterol [2, 4]: 20.45 ± 8.99 mg/dL; Total Cholesterol [2, 4]: 53.75 ± 12.35 mg/dL; Total Triglyceride [2, 4]: 40.77 ± 6.06 mg/dL; inhibition of body weight gain ([2]; 10 mg/kg oral once a day for 35 days): 88%; Body Weight (g) (Mean ± SD) Week 0 ([2]; 10 mg/kg oral once a day, Week 0): 26.30 ± 1.45 g; Body Weight (g) (Mean ± SD) Week 1 ([2]; 10 mg/kg oral once a day, Week 1): 33.63 ± 1.28 g; Body Weight (g) (Mean ± SD) Week 2 ([2]; 10 mg/kg oral once a day, Week 2): 37.41 ± 2.02 g; Body Weight (g) (Mean ± SD) Week 3 ([2]; 10 mg/kg oral once a day, Week 3): 39.11 ± 0.90 g; Body Weight (g) (Mean ± SD) Week 4 ([2]; 10 mg/kg oral once a day, Week 4): 39.95 ± 1.26 g; Body Weight (g) (Mean ± SD) Week 5 ([2]; 10 mg/kg oral once a day, Week 5): 41.24 ± 1.60 g"
"COC(=O)c1ccc2nc(COc3ccc(Cl)cc3Cl)oc2c1 [compound 5, 2-(2,4-dichloro-phenoxymethyl)-benzoxazole-6-carboxylic acid methyl ester]",1.98%,
"COC(=O)c1ccc2[nH]c(COc3ccc(Cl)cc3Cl)nc2c1 [compound 6, 2-(2,4-dichloro-phenoxymethyl)-1H-benzoimidazole-5-carboxylic acid methyl ester]",0.63%,
"COC(=O)c1ccc2nc(COc3ccc(C(C)(C)C)cc3C(C)(C)C)oc2c1 [compound 7, 2-(2,4-tert-butyl-phenoxymethyl)-benzoxazole-6-carboxylic acid methyl ester]",34.5%,
"COC(=O)c1ccc2[nH]c(COc3ccc([N+](=O)[O-])cc3)nc2c1 [compound 9, 2-(4-nitro-phenoxymethyl)-1H-benzoimidazole-5-carboxylic acid methyl ester]",0.61%,DGAT (% inhibition in 5 μM) [1]: −5.6%
"O=C(O)c1ccc2oc(COc3ccc(Cl)cc3Cl)nc2c1 [compound 11, 2-(2,4-dichloro-phenoxymethyl)-benzoxazole-5-carboxylic acid]",−16.48%,
"O=C(O)c1ccc2oc(COc3ccc(C45CC6CC(CC(C6)C4)C5)cc3)nc2c1 [compound 12, 2-(4-adamantan-1-yl-phenoxymethyl)-benzoxazole-5-carboxylic acid]",−10.43%,
"O=C(O)c1ccc2nc(COc3ccc(C45CC6CC(CC(C6)C4)C5)cc3)oc2c1 [compound 13, 2-(4-adamantan-1-yl-phenoxymethyl)-benzoxazole-6-carboxylic acid]",−18.53%,
"O=C(O)c1ccc2[nH]c(COc3ccc(C45CC6CC(CC(C6)C4)C5)cc3)nc2c1 [compound 14, 2-(4-adamantan-1-yl-phenoxymethyl)-1H-benzoimidazole-5-carboxylic acid]",−13.17%,
"O=C(O)c1ccc2nc(COc3ccc(Cl)cc3Cl)oc2c1 [compound 15, 2-(2,4-dichloro-phenoxymethyl)-benzoxazole-6-carboxylic acid]",−13.03%,
"O=C(O)c1ccc2[nH]c(COc3ccc(Cl)cc3Cl)nc2c1 [compound 16, 2-(2,4-dichloro-phenoxymethyl)-1H-benzoimidazole-5-carboxylic acid]",−7.37%,
"CC(C)(C)c1ccc(OCc2nc3ccc(C(=O)O)cc3o2)cc1 [compound 17, 2-(4-tert-butyl-phenoxymethyl)-benzoxazole-6-carboxylic acid]",−29.81%,
"CC(C)(C)c1ccc(OCc2nc3cc(C(=O)O)ccc3[nH]2)cc1 [compound 18, 2-(4-tert-butyl-phenoxymethyl)-1H-benzoimidazole-5-carboxylic acid]",−13.05%,
"O=C(O)c1ccc2[nH]c(COc3ccc([N+](=O)[O-])cc3)nc2c1 [compound 19, 2-(4-nitro-phenoxymethyl)-1H-benzoimidazole-5-carboxylic acid]",−5.86%,DGAT (% inhibition in 5 μM) [1]: 2.0%
"CN(C)C(=O)c1ccc2oc(COc3ccc(C45CC6CC(CC(C6)C4)C5)cc3)nc2c1 [compound 21, 2-(4-adamantan-1-yl-phenoxymethyl)-benzoxazole-5-carboxylic acid dimethylamide]",10.49%,
"CN(C)CCNC(=O)c1ccc2oc(COc3ccc(C45CC6CC(CC(C6)C4)C5)cc3)nc2c1 [compound 23, 2-(4-adamantan-1-yl-phenoxymethyl)-benzoxazole-5-carboxylic acid (2-dimethylamino-ethyl)-amide]",8.59%,
O=C(NCc1ccco1)c1ccc2nc(COc3ccc(C45CC6CC(CC(C6)C4)C5)cc3)oc2c1 [compound 27],13.26%,
"O=C(NCc1ccco1)c1ccc2nc(COc3ccc(Cl)cc3Cl)oc2c1 [compound 28, 2-(2,4-dichloro-phenoxymethyl)-benzoxazole-6-carboxylic acid (furan-2-ylmethyl)-amide]",−8.07%,
"NC(=O)c1ccc2nc(COc3ccc(C45CC6CC(CC(C6)C4)C5)cc3)[nH]c2c1 [compound 29, 2-(4-adamantan-1-yl-phenoxymethyl)-3H-benzoimidazole-5-carboxylic acid amide]",−13.38%,DGAT (% inhibition in 5 μM) [1]: −1.8%
"CN(C)CCNC(=O)c1ccc2[nH]c(COc3ccc(C45CC6CC(CC(C6)C4)C5)cc3)nc2c1 [compound 32, 2-(4-adamantan-1-yl-phenoxymethyl)-1H-benzoimidazole-5-carboxylic acid (2-dimethylamino-ethyl)-amide]",−3.08%,
"O=C(NCCCn1ccnc1)c1ccc2[nH]c(COc3ccc(C45CC6CC(CC(C6)C4)C5)cc3)nc2c1 [compound 33, 2-(4-adamantan-1-yl-phenoxymethyl)-1H-benzoimidazole-5-carboxylic acid (3-imidazol-1-yl-propyl)-amide]",16.99%,
"NNC(=O)c1ccc2[nH]c(COc3ccc(Cl)cc3Cl)nc2c1 [compound 34, 2-(2,4-dichloro-phenoxymethyl)-1H-benzoimidazole-5-carboxylic acid hydrazide]",6.74%,
